The target of one test is WT PKCβII (Rattus norvegicus, UniProt P68403). The settings on record: COS7 cells, PDBu 200 nM. The procedure:
(§1) For activity experiments COS7 cells were co-transfected with the indicated mCherry-tagged PKC construct and CKAR. For Kinameleon experiments, the indicated Kinameleon construct containing mYFP and mCFP was transfected alone. For translocation experiments, COS7 cells were co-transfected with the indicated mYFPtagged construct and plasma-membrane targeted mCFP at a ratio of 10:1. Baseline images were acquired every 15 s for 2 min prior to ligand addition. F6rster resonance energy transfer (FRET) ratios represent mean±SEM from at least three independent experiments.
(§2) All data were normalized to the baseline FRET ratio of each individual cell unless noted that absolute FRET ratio was plotted or traces were normalized to levels post-inhibitor addition. […] Every experiment contained an mCherry-transfected control to measure endogenous activity, and an mCherry-tagged WT (or deleted pseudosubstrate) PKC. Control traces are depicted as dotted lines: specifically, the endogenous trace in FIG. 1E and the deleted pseudosubstrate trace in FIGS. 2G and 31, were redrawn to serve as a point of reference in those figures (data were acquired and derived in the same experiments which generated all the data in FIGS. 1A-1E and FIGS. 2A-2G, respectively).

The next test deals with T1, PKCβII (Rattus norvegicus, UniProt P68403).
T1 construct: expressed in transfected cells; host or cells: COS7
T1 sequence (P68403 1-673 isoform P68403-2): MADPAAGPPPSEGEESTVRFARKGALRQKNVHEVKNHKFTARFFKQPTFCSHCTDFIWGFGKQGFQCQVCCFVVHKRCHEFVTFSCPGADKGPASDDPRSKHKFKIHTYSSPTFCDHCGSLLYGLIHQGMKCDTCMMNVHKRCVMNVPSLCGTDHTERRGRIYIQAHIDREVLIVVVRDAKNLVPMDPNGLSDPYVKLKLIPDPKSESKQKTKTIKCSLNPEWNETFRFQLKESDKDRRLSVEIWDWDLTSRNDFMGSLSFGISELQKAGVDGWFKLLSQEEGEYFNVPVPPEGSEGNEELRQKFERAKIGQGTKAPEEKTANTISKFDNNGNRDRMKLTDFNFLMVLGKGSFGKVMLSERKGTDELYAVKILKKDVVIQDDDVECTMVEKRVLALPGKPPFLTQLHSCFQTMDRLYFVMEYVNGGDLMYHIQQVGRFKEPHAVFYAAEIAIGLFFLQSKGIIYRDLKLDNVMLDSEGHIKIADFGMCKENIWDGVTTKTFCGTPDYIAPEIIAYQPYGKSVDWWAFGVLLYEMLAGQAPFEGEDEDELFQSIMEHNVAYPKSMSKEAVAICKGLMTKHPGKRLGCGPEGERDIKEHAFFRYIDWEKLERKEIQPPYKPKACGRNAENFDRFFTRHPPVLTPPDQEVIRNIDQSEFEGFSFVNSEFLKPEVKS
As to the kind of experiment: C kinase activity reporter (CKAR) FRET assay of cellular PKC activity. It is filed as cell-based. Conditions: for activation of WT PKCa and PKCβII (CKAR): COS7 cells, agonist treatment. The procedure: as §1, §2

Test [1] concerns the target T2, PKCβII deleted pseudosubstrate (Rattus norvegicus, UniProt P68403, DEL19-36).
T2 construct: expressed in transfected cells; host or cells: COS-7
Description: Immunoblot of PKC priming phosphorylations after phosphatase inhibitor. The settings on record: COS-7 cells, 20 minutes prior to lysis. It counts as cell-based. The protocol: FIG. 8. PKC APS Phosphorylation Is Not Regulated by a Calyculin-Sensitive Phosphatase. Western blot of lysates from COS-7 cells expressing RFP-tagged PKCβII wild-type (WT) or deleted pseudosubstrate (APS) and treated with DMSO (−) or Calyculin A (Cal, 100pM) and Go6976 (6pM) for 20 minutes prior to lysis. Immunoblots were probed with PKC phospho-specific antibodies against the activation loop (pThr^500), turn motif (pThr” ^1), or hydrophobic motif ([…]), total overexpressed PKC (HA), or phospho-serine substrate (pSer) as a positive control for Calyculin A.
Cells were lysed in PPHB: 50 mM NaPO4 (pH 7.5), 1% Triton X-100, 20 mM NaF, 1 mM Na4P207, 100 mM NaCl, 2 mM EDTA, 2 mM EGTA, 1 mM Na3VO4, 1 mM PMSF, […] leupeptin, 1 mM DTT, and […]. Phlpp1+/+ and Ph/pp1-/−MEFs were lysed in 50 mM Tris (pH 7.4), 1% Triton X-100, 50 mM NaF, 10 mM Na4P207, 100 mM NaCl, 5 mM EDTA, 1 mM Na3VO4, 1 mM PMSF, […] leupeptin, and […]. Triton-soluble fractions were analyzed by SDS-PAGE on 7% big gels to observe phosphorylation shift, transfer to PVDF membrane (Biorad), and western blotting via chemiluminescence SuperSignal West reagent (Thermo Fisher) on a FluorChem Q imaging system (ProteinSimple). In western blots, the asterisk (*) denotes the position of mature, phosphorylated PKC; whereas, the dash (−) indicates the position of unphosphorylated PKC. […]
A general note: Immunoblotting shows a protein as a band on a membrane.

T2 sequence (P68403 with tags, fused parts or gaps isoform P68403-2 DEL19-36): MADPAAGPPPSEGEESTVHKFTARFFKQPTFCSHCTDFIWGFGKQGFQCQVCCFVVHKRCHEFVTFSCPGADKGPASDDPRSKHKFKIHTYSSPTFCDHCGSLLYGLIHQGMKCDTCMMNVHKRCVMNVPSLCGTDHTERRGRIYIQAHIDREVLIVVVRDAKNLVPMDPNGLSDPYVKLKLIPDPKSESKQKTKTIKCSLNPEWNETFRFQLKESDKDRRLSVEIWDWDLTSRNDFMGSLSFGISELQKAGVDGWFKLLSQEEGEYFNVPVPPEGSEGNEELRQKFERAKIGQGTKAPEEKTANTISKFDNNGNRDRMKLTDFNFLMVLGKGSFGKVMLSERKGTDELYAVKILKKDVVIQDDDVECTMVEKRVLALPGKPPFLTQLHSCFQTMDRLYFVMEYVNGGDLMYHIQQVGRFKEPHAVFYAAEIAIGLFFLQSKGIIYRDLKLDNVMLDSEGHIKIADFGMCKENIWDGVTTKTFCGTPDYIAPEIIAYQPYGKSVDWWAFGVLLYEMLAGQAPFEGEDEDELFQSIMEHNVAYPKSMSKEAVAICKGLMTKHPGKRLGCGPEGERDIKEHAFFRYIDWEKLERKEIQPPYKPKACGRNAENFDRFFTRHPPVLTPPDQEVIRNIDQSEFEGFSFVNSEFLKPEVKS
Sequence of WT PKCβII (P68403 1-673 isoform P68403-2): as the sequence (P68403 1-673 isoform P68403-2) above

`CCCC(=O)O[C@@H]1[C@@H](C)[C@@]2(O)[C@@H](C=C(CO)C[C@]3(O)C(=O)C(C)=C[C@@H]23)[C@@H]2C(C)(C)[C@]12OC(=O)CCC` [PDBu, Phorbol 12,13-dibutyrate]: the “FRET ratio of Kinameleon reporter” value at WT PKCβII is “increase in FRET ratio”. Further, the CKAR phosphorylation entry at PKCβII (COS7 cells expressing WT PKC or turn motif mutant (T641A), PDBu 200 nM) was “robust increase in CKAR phosphorylation”. Moreover, at PKCβII, the “activation of WT PKCa and PKCβII (CKAR)” value is on record as “activated”.

Regarding `COC[C@@H]([C@H](O)[C@H](O)C(=O)NCC[C@H](C)c1nc(/C=C/C[C@@H]2O[C@]3(C[C@@H](O)[C@@H]2C)O[C@H]([C@H](C[C@H](O)[C@H](C)[C@H](O)[C@H](C)/C=C(C)/C(C)=C/C=C/C(C)=C\C#N)OC)[C@H](OP(=O)(O)O)C3(C)C)co1)N(C)C` [Calyculin A], the “rescue of phosphorylation at the three priming sites of pseudosubstrate-deleted PKC” value in test [1] is given as “could not be rescued”. `O=c1ccn([C@@H]2O[C@H](COP(=O)(O)OP(=O)(O)OP(=O)(O)O)[C@@H](O)[C@H]2O)c(=O)[nH]1` [UTP, uridine triphosphate]: the “activation of WT PKCa and PKCβII (CKAR)” value at PKCβII is “activated”.

Source of the values: patent publication US20230103330A1, “MECHANISTIC BIOMARKER FOR PREDICTING THE SURVIVAL OF PANCREATIC CANCER PATIENTS” (The Regents of the University of California, priority 2020, published 2023).
